Source: US20220177515A1, “METHOD FOR MODIFYING AMINO GROUP IN MOLECULE WITH THE ZOLINIUM AND USE THEREOF” (priority 2019, published 2022)
Starred links: 1 amine or outer side, 2 acyl side, 3 side chain; linkers in the order of their positions; H or OH if unused. Non-standard residues stand in square brackets, D forms with d. Residues, ends and D or L forms follow the SMILES beside them. X1 = O=C([C@H](Cc1ccc(O)cc1)N(c1ccc2ccccc2n1)[*:1])[*:2]

What was measured:
[1] = target: tankyrase (TNKS); conditions: read-out: IC50 (TNKS inhibitor); cited from earlier work
[2] = target: μ-opioid receptor (MOR) (Homo sapiens, UniProt P35372); experiment: [35S]GTPγS binding assay, MOR agonist activity; assay type: biochemical; conditions: for Emax: [35S]GTPγS binding rate
Chain of μ-opioid receptor (MOR) (P35372 whole entry): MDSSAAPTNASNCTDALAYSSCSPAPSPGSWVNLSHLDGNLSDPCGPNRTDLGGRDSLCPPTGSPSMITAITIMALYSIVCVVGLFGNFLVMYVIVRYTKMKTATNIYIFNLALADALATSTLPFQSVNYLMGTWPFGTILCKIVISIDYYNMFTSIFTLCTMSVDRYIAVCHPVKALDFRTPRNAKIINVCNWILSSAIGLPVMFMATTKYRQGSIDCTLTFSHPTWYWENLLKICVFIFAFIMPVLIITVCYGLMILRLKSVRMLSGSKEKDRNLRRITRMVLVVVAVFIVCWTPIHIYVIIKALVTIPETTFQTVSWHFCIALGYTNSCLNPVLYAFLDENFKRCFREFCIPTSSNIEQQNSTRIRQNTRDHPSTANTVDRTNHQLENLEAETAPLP
Protocol: Protein concentration was detected using BCA protein concentration assay kit: 10 μl of protein standard was prepared into a final concentration of 0.5 mg/ml. 0, 1, 2, 4, 8, 12, 16, or 20 μl of BSA standard protein was taken and added together with the sample to be tested to a 96-well plate, and supplemented to 20 μl with the solution for diluting the standard. 200 μl of BCA working solution was added to each well and placed at 37° C. for 30 min. The absorbance at A562 wavelength was measured with a microplate reader. The protein concentration was calculated based on the standard curve.
The prepared membrane receptor was diluted to the required concentration with the reaction buffer (R.B), and the samples were added as shown in Table 2 (unit: μl).
The reaction tube was incubated in a 27° C. water bath for 1 hour, and the mixture was filtered through a glass fiber membrane under reduced pressure and liquid scintillation counting was performed. The following equation was used to perform calculation:
[^35S] GTPγS binding rate=100×(cpmsample−cpmnon-specific)/(cpmbasal−cpmnon-specific)

[3] = tested on: Hepatocarcinoma SMMC-7721 cells; experiment: Cell proliferation inhibition assay (SRB method), SMMC-7721; assay type: cell-based; conditions: for IC50: SMMC-7721, 72 hours, SRB
Protocol: (§1) Hepatocarcinoma BEL-7402 and SMMC-7721 cells were purchased from American Standard Bacterial Bank. All cell lines were stored in a cell culture medium containing 10% fetal bovine serum in a humid environment at 37° C. and 5% CO2. The two kinds of hepatocarcinoma cells were seeded in 96-well plates overnight. The assay were performed using a final highest concentration of 100 μM, 10-fold dilution, 6 gradients and 3 duplicates, and the cells were treated for 72 hours and three independent repeated experiments were carried out. The antiproliferative activity of the compound was determined by Sulforhodamine B (SRB) method. Then the absorbance OD value at a wavelength of 510 nm was measured on a Synergy H4 Hybrid reader (BioTek, Winooski, Vt., USA) by using Gen5.0 software (BioTek). The IC50 value was calculated using the software Prism 5 (GraphPad Software, Inc).

[4] = tested on: Hepatocarcinoma BEL-7402 cells; experiment: Cell proliferation inhibition assay (SRB method), BEL-7402; assay type: cell-based; conditions: for IC50: BEL-7402, 72 hours, SRB
Protocol: as §1

[5] = assay type: in vitro ADME; conditions: 1 mg/ml in pig liver slurry, 0.25-3 hour, FIG. 3
Protocol: 5 g of a fresh pig liver from which adhering fat and connective tissue were removed, was washed with a cold saline, absorbed water on its surface with a filter paper and weighed. The liver was cut into pieces with a scissors, added with an appropriate amount of a PBS buffer, and homogenized with a homogenizer at a frequency of 30/s for 4 minutes to prepare 20 ml of a slurry. The compound 2-40 to be tested (at a final concentration of 1 mg/ml with a co-solvent (1% DMSO)) was added into the 20 ml pig liver slurry, stirred thoroughly and left stand. 1 ml of samples were withdrawn twice at six time points: 0.25 hour, 0.5 hour, 1 hour, 1.5 hour, 2 hour and 3 hour, respectively, and added with methanol (500 μl) to stop the reaction. After centrifugation (1000 rpm, 6 minutes), the supernatant was separated and extracted twice with 750 μl of water-saturated n-butanol. The extracted samples were then analyzed by HPLC. The HPLC analysis was performed on an Agilent Zorbax SB-C18 column (5 μm, 4.6×250 mm) with a flow rate of […] at 25° C. The gradient condition used was from 50% A (MeOH) and 50% B (H2O+0.2% CH3COOH) to 95% A and 5% B in 16 minutes. The absorbance values at 210, 254 and 280 nm were collected using a UV-DAD detector.

## Cc1cc(=O)[nH]c2cc(-c3ccccc3F)ccc12 [7-(2-fluorophenyl)-4-methylquinoline-2(1H)-one]
[1]
  IC50: 0.052 µM

## C[C@H](NC(=O)[C@H](Cc1ccc(O)cc1)Nc1ccc2ccccc2n1)C(=O)N[C@H](Cc1ccccc1)C(=O)NCC(=O)N[C@H](Cc1ccc(O)cc1)C(=O)N1CCC[C@H]1C(=O)N[C@@H](CO)C(N)=O [Compound 2-38] (H-[X1]A[dF]G[dY]PS-NH2)
[2]
  MOR agonist activity compared with derorphin: activity comparable to that of derorphin
[2]; mean ± sem
  EC50: 0.224 ± 0.0251 µM
  Emax: 203 ± 5.1%

## COC(=O)[C@H](CC(C)C)NC(=O)[C@H](CO)NC(=O)[C@H](Cc1ccc(O)cc1)Nc1ccc2ccccc2n1 [Compound 2-39]
[3]; SMMC-7721
  cytotoxicity compared with unmodified drugs: better cytotoxicities than the unmodified drugs
[3]
  IC50: 63.3 ± 6.35 µM
[4]; BEL-7402
  cytotoxicity compared with unmodified drugs: better cytotoxicities than the unmodified drugs
[4]
  IC50: 52.6 ± 2.47 µM

## C=C(/C=C\C(=C)NC(=O)[C@H](CCCNC(N)=O)NC(=O)[C@@H](Nc1cc(C)c2ccc(-c3ccccc3F)cc2n1)C(C)C)CO [Compound 2-40]
[5]
  metabolic stability in liver tissue: good metabolic stability

## CC(C)C[C@H](NC(=O)[C@H](CO)NC(=O)[C@@H](N)Cc1ccc(O)cc1)C(=O)O [YSL, Tyroserleutide, reference compound] (H-Tyr-Ser-Leu-OH; N-terminus and C-terminus assumed)
[3]
  IC50: > 100 µM
[4]
  IC50: > 100 µM

## COC(=O)[C@H](CC(C)C)NC(=O)[C@H](CO)NC(=O)[C@@H](N)Cc1ccc(O)cc1 [YSL-M, tyroserleucide methyl ester, reference compound] (H-Tyr-Ser-Leu-OMe; N-terminus assumed)
[3]
  IC50: > 100 µM
[4]
  IC50: > 100 µM

## C[C@@H](NC(=O)[C@@H](N)Cc1ccc(O)cc1)C(=O)N[C@@H](Cc1ccccc1)C(=O)NCC(=O)N[C@@H](Cc1ccc(O)cc1)C(=O)N1CCC[C@H]1C(=O)N[C@@H](CO)C(N)=O [derorphin, reference compound]
[2]; mean ± sem
  Emax: 219 ± 7.1%
